This note sets out measurements from US8841482B2, “Method for synthesizing rare earth metal extractant” (Shin-Etsu Chemical Co., Ltd., priority 2010, dated 2014).

The nature of this data set: extraction/separation performance test (solvent extraction of Pr/Nd, back extraction, ICP atomic emission). The data set is classed as physicochemical. The conditions noted are these: aqueous Pr:Nd 1:1, 0.1 mol/L Pr+Nd, 20° C.

The structures appear in SMILES notation.

Protocol: The stoichiometric amount of the reaction product, D2EHDGAA in Example 1 or Comparative Example 1 was diluted with hexanol to form an organic solution having a D2EHDGAA concentration of 0.3 mol/L, which might become an organic phase.
A mixed rare earth metal aqueous solution was prepared by dissolving praseodymium chloride and neodymium chloride in water in a molar ratio Pr:Nd of 1:1 and a concentration of 0.1 mol/L of Pr+Nd to form an aqueous solution, which might become an aqueous phase. A separatory funnel was charged with 100 mL of the organic solution and 100 mL of the aqueous solution and shaken at 20° C. for about 20 minutes to effect extraction. After equilibrium was reached, the liquid was allowed to separate into organic and aqueous phases. A separatory funnel was charged with 100 mL of the thus separated organic phase and 100 mL of 5N hydrochloric acid and shaken at 20° C. for about 20 minutes whereby the rare earth element once extracted in the organic phase was back extracted in the hydrochloric acid aqueous solution. The concentrations of praseodymium and neodymium in the aqueous phase and the back-extracted hydrochloric acid aqueous solution were measured by an ICP atomic emission spectrometer ICP-7500 (Shimadzu Corp.).
The stoichiometric amount of the reaction product, D2EHDGAA in Example 5, 6 or Comparative Example 5, 6 was diluted with toluene to form an organic solution having a D2EHDGAA concentration of 0.3 mol/L, which might become an organic phase.

Regarding `CCCCC(CC)CN(CC(CC)CCCC)C(=O)COCC(=O)O` (stereo not drawn) [Example 1, N,N-bis(2-ethylhexyl)-3-oxapentane-1,5-amic acid], under “D2EHDGAA 0.3 mol/L in hexanol”, the Nd/Pr separation factor came to 2.5 and the Phase separation entry was “definite”.

On to `CCCCCCCCN(CCCCCCCC)C(=O)COCC(=O)O` [Example 2, N,N-dioctyl-3-oxapentane-1,5-amic acid], for which, for the setting “DODGAA 0.3 mol/L in hexanol”, the Nd/Pr separation factor was 2.5 and the Phase separation result is listed as “definite”.

In the case of `CCCCC(CC)CN(CC(CC)CCCC)C(=O)COCC(=O)O` (stereo not drawn) [Example 3, N,N-bis(2-ethylhexyl)-3-oxapentane-1,5-amic acid], for the setting “D2EHDGAA 0.3 mol/L in kerosene”, the Nd/Pr separation factor was 2.5 and the Phase separation entry is on record as “definite”.

For the compound `CCCCC(CC)CN(CC(CC)CCCC)C(=O)COCC(=O)O` (stereo not drawn) [Example 4, N,N-bis(2-ethylhexyl)-3-oxapentane-1,5-amic acid], for the setting “D2EHDGAA 0.3 mol/L in kerosene”, the Nd/Pr separation factor is listed as 2.5 and the Phase separation entry was “definite”.

Turning to `CCCCC(CC)CN(CC(CC)CCCC)C(=O)COCC(=O)O` (stereo not drawn) [Example 5, N,N-bis(2-ethylhexyl)-3-oxapentane-1,5-amic acid], for the setting “D2EHDGAA 0.3 mol/L in toluene”, the Nd/Pr separation factor is listed as 2.5 and the Phase separation result is “definite”.

Take `CCCCC(CC)CN(CC(CC)CCCC)C(=O)COCC(=O)O` (stereo not drawn) [Example 6, N,N-bis(2-ethylhexyl)-3-oxapentane-1,5-amic acid]: where the note is “D2EHDGAA 0.3 mol/L in toluene”, the Nd/Pr separation factor turned out to be 2.5 and the Phase separation result is on record as “definite”.
